Experimental data: paper PMC10258794, “To Fold or Not to Fold: Diastereomeric Optimization of an α-Helical Antimicrobial Peptide” (Journal of Medicinal Chemistry, 2023)
In brackets after ≈: the same amount, converted by molar mass. Where two headings read alike, the source gives them in different places.

How the values were obtained:
Staphylococcus epidermis = test: MIC broth microdilution, Staphylococcus epidermis; assay type: cell-based; conditions: pH 7.4
Description: (§1) Antimicrobial activity was determined for all peptides on E. coli W3110, P. aeruginosa PAO1, A. baumannii ATCC19606, K. pneumoniae NCTC418, and methicillin-resistant S. aureus COL and for selected peptides on P. aeruginosa PA14 and the polymyxin B-resistant derivatives PA14 4.13, PA14 4.18, and PA14 2P4 as well as the clinical isolates ZEM-1A and ZEM9A, K. pneumoniae OXA-48, Enterobacter cloacae, Stenotrophomonas maltophilia, B. cenocepacia, and Staphylococus epidermis. To determine the MIC, the broth microdilution method was used.[75] A single bacterial colony was grown in LB medium overnight at 37 °C and 180 rpm shaking. The compounds were prepared as stock solutions of 2 mg/mL in sterilized milliQ deionized water, added to the first well of 96-well sterile, polypropylene round-bottom microtiter plates (TPP, untreated, Corning Incorporated, Kennebunk, USA), and diluted serially by 1/2. […] The bacterial inoculum was prepared by measuring the absorbance of the overnight culture, which was diluted to concentration of the bacteria was quantified by measuring absorbance at 600 nm and diluted to an OD600 of 0.022 in MH medium pH 7.4 (Sigma-Aldrich, Buchs, Switzerland). The sample solutions (150 μL) were mixed with 4 μL of diluted bacterial suspension with a final inoculation of about 5 × 10^5 CFU. For each test, two columns of the plate were kept for sterility control (MH medium only) and growth control (MH medium with bacterial inoculum, no compound). […] The plates were incubated at 37 °C for 16–20 h under static conditions. 15 μL of 3-(4,5-dimethylthiazol-2-yl)-2,5-diphenyltetrazolium bromide (MTT)[76] (1 mg/mL in sterilized milliQ deionized water) was added to each well, and the plates were incubated at room temperature until MTT staining was completed. The MIC was defined as the lowest concentration of the dendrimer that inhibits the visible growth of the tested bacteria (yellow) with the unaided eye.

HEK293 cells = test: Alamar blue cytotoxicity, HEK293; assay type: cell-based, human; conditions: 24 h, mean ± SD, n = 3, read-out: Toxicity on HEK293 cells
Description: (§2) The A549 human lung adenocarcinoma cells are derived from a patient and were kindly given to us by Dr. Georgia Konstatinidou (Pharmacology Institute, Bern University). HEK293T cells were obtained from ATCC (CRL-11268). A549 and HEK293 were cultured in an incubator at 37 °C with 5% CO2 in RPMI-1640 (Gibco) and DMEM (Gibco) containing 10% fetal bovine serum (Thermo Fisher), 100 I.U./mL penicillin, and 100 μg/mL streptomycin (Gibco).
(§3) The viability of the cells was assessed with an AlamarBlue assay (ThermoFisher). Cells were seeded into 96-well plates, 4000 cells/well (HEK293) and 8000 cells/well (A549), the day before the experiment. Cells were then treated with the increasing concentration of the compound and incubated for 24 h at 37 °C in the presence of 5% CO2. The next day, the medium was removed and replaced by a 10% AlamarBlue solution in full growth medium (DMEM or RPMI-1640). The cells were incubated for 3–5 h at 37 °C with 5% CO2 in a humidified atmosphere. The fluorescence was then measured on a Tecan Infinite M1000 Pro plate reader at λex 560 nm and λem 590 nm. The value was normalized according to the untreated cells.

[1] = test system: Stenotrophomonas maltophilia; test: microbe, parasite or virus in culture; assay type: cell-based; conditions: pH 7.4
Description: as §1

S. aureus COL MRSA = conditions: for MIC S. aureus COL MRSA: MH broth pH 7.4, 16–20 h, 37 °C; for MIC S. aureus COL: supplementary CSV, ranges of Table 1 given as one number
In short: (§4)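 Growth inhibition is judged by eye after MTT addition, the MIC being the lowest compound concentration whose well stays yellow. Bacteria from overnight LB cultures are diluted in MH medium at pH 7.4 to roughly 5 × 10^5 CFU and incubated with doubling dilutions at 37 °C, unshaken, 16–20 h.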

P. aeruginosa PAO1 = test system: P. aeruginosa PAO1
In short: as §4

K. pneumoniae NCTC418 = test system: K. pneumoniae NCTC418
In short: as §4

E. coli W3110 = test system: E. coli W3110
In short: as §4

A. baumannii ATCC19606 = test system: A. baumannii ATCC19606
In short: as §4

K. pneumoniae Oxa-48 = test: MIC broth microdilution, K. pneumoniae Oxa-48; assay type: cell-based, Klebsiella pneumoniae; conditions: MDR strain; MH broth pH 7.4, 16–20 h, 37 °C
Description: as §1

P. aeruginosa ZEM9A = test: microbe, parasite or virus in culture; assay type: cell-based, Pseudomonas aeruginosa; conditions: pH 7.4
Description: as §1

A549 cells = test: Alamar blue cytotoxicity, A549; assay type: cell-based, human; conditions: 24 h, mean ± SD, n = 3, read-out: Toxicity on A549 lung cancern cells
Description: as §2, §3

P. aeruginosa PA14 = test: microbe, parasite or virus in culture; conditions: for MIC PA14: MH broth pH 7.4, 16–20 h, 37 °C; for MIC P. aeruginosa PA14: supplementary CSV
Description: as §1

PA14 2P4 (pmrB) = test: microbe, parasite or virus in culture; conditions: supplementary CSV
Description: as §1

PA14 4.13 (phoQ) = test: microbe, parasite or virus in culture; conditions: supplementary CSV
Description: as §1

PA14 4.18 (pmrB) = test: microbe, parasite or virus in culture; conditions: supplementary CSV
Description: as §1

Enterobacter cloacae = test: microbe, parasite or virus in culture; conditions: pH 7.4
Description: as §1

Burkolderia cenocepacia = test: microbe, parasite or virus in culture; conditions: for MIC Burkolderia cenocepacia: MDR strain, MH broth pH 7.4, 16–20 h, 37 °C
Description: as §1

P. aeruginosa ZEM-1A = test: microbe, parasite or virus in culture; conditions: pH 7.4
Description: as §1

S. aureus Newman = conditions: for MIC S. aureus Newman: MH broth pH 7.4, 16–20 h, 37 °C; for MIC S. aureus Newmann: supplementary CSV
[2] = test system: Pseudomonas aeruginosa, Klebsiella pneumoniae, Acinetobacter baumannii, Escherichia coli, and methicillin-resistant Staphylococcus aureus; conditions: summary of Table 1
In short: as §4

[3] = EYPC vesicle leakage assay; assay type: biochemical; conditions: 10 μg/mL of compound; 10 mM TRIS, 107 mM NaCl, pH 7.4
Description: 5(6)-carboxyfluorescein (CF) was purchased from Sigma. EYPC, EYPG, and a Mini-Extruder were purchased from Avanti Polar Lipids. Egg PC or Egg PG thin lipid layers were prepared by evaporating a solution of 100 mg of EYPC or EYPG in 4 mL of MeOH/CHCl3 (1:1) on a rotary evaporator at room temperature and then dried in vacuo overnight. […] Extravesicular components were removed by gel filtration (Sephadex G-50) with 10 mM TRIS, 107 mM NaCl, pH 7.4 buffer. Final conditions: ∼2.5 mM PC or PG; inside: 50 mM CF, 10 mM TRIS, 10 mM NaCl, pH 7.4 buffer; outside: 10 mM TRIS, 107 mM NaCl, pH 7.4. […] The CF efflux was monitored at λem 517 nm (λex 492 nm) as a function of time after addition of the desired volume of peptide from 2 mg/mL stock in mQ water at t = 45 s, 10 and 50 μg/mL were monitored for both EYPC and EYPG. […] Fluorescence intensities were then normalized to the maximal emission intensity using I(t) = (It – I0)/(I∞ – I0) where I0 = It at peptide addition, I∞ = It at saturation of lysis.

[4] = MH broth pH 7.4, 16–20 h, 37 °C
[5] = supplementary CSV, ranges of Table 1 given as one number

SMILES | MIC Staphylococcus epidermis (Staphylococcus epidermis) [µg/mL] | IC50 (HEK293 cells) [µM] | MIC Stenotrophomonas maltophilia [1] [µg/mL] | MIC S. aureus COL MRSA (S. aureus COL MRSA) [µg/mL] | MIC S. aureus COL (S. aureus COL MRSA) [µg/mL] | MIC P. aeruginosa PAO1 (P. aeruginosa PAO1; [4]) [µg/mL] | MIC P. aeruginosa PAO1 (P. aeruginosa PAO1; [5]) [µg/mL] | MIC K. pneumoniae NCTC418 (K. pneumoniae NCTC418; [4]) [µg/mL] | MIC K. pneumoniae NCTC418 (K. pneumoniae NCTC418; [5]) [µg/mL] | MIC E. coli W3110 (E. coli W3110; [4]) [µg/mL] | MIC E. coli W3110 (E. coli W3110; [5]) [µg/mL] | MIC A. baumannii ATCC19606 (A. baumannii ATCC19606; [4]) [µg/mL] | MIC A. baumannii ATCC19606 (A. baumannii ATCC19606; [5]) [µg/mL] | MIC K. pneumoniae Oxa-48 (K. pneumoniae Oxa-48) [µg/mL] | MIC ZEM9A (P. aeruginosa ZEM9A) [µg/mL] | IC50 (A549 cells) [µM] | MIC PA14 (P. aeruginosa PA14) [µg/mL] | MIC P. aeruginosa PA14 (P. aeruginosa PA14) [µg/mL] | MIC P. aeruginosaPA14 2P4 (PA14 2P4 (pmrB)) [µg/mL] | MIC P. aeruginosa PA14 4.13 (PA14 4.13 (phoQ)) [µg/mL] | further results
CC(C)C[C@H](NC(=O)[C@H](CC(C)C)NC(=O)[C@H](CC(C)C)NC(=O)[C@H](CCCCN)NC(=O)[C@H](CC(C)C)NC(=O)[C@H](CC(C)C)NC(=O)[C@H](CCCCN)NC(=O)[C@@H](CC(C)C)NC(=O)[C@H](CC(C)C)NC(=O)[C@@H](CCCCN)NC(=O)[C@@H](N)CCCCN)C(N)=O [HP4, KkLlKLLKLLL] | 2 (≈ 1.51 µM) | 43.7 ± 0.8 | 2 (≈ 1.51 µM) | 2 to 4 | 3 (≈ 2.27 µM) | 2 to 4 | 3 (≈ 2.27 µM) | 2 (≈ 1.51 µM) | 2 (≈ 1.51 µM) | 2 to 4 | 3 (≈ 2.27 µM) | 2 to 4 | 3 (≈ 2.27 µM) | 2 (≈ 1.51 µM) | 4 (≈ 3.03 µM) | 4.6 ± 4.9 | 2 (≈ 1.51 µM) | 2 (≈ 1.51 µM) | 64 (≈ 48.4 µM) | 4 (≈ 3.03 µM) | MIC P. aeruginosa PA14 4.18 (PA14 4.18 (pmrB)): 32 µg/mL (≈ 24.2 µM); MIC Enterobacter cloacae (Enterobacter cloacae): 2 µg/mL (≈ 1.51 µM); MIC Burkolderia cenocepacia (Burkolderia cenocepacia): >64 µg/mL; MIC ZEM-1A (P. aeruginosa ZEM-1A): 2 µg/mL (≈ 1.51 µM); MIC S. aureus Newman (S. aureus Newman): 2 µg/mL (≈ 1.51 µM); MIC S. aureus Newmann (S. aureus Newman): 2 µg/mL (≈ 1.51 µM)
CC(C)C[C@H](NC(=O)[C@H](CC(C)C)NC(=O)[C@H](CC(C)C)NC(=O)[C@H](CCCCN)NC(=O)[C@H](CC(C)C)NC(=O)[C@H](CC(C)C)NC(=O)[C@@H](CCCCN)NC(=O)[C@H](CC(C)C)NC(=O)[C@H](CC(C)C)NC(=O)[C@@H](CCCCN)NC(=O)[C@H](N)CCCCN)C(N)=O [HP10, kkLLkLLKLLL] | 2 (≈ 1.51 µM) | 75.1 ± 1.7 | 2 (≈ 1.51 µM) | 2 (≈ 1.51 µM) | 2 (≈ 1.51 µM) | 4 (≈ 3.03 µM) | 4 (≈ 3.03 µM) | 4 (≈ 3.03 µM) | 4 (≈ 3.03 µM) | 2 (≈ 1.51 µM) |  | 2 (≈ 1.51 µM) | 2 (≈ 1.51 µM) | 2 (≈ 1.51 µM) | 4 (≈ 3.03 µM) | 15 ± 0.7 | 2 (≈ 1.51 µM) | 2 (≈ 1.51 µM) | 32 (≈ 24.2 µM) | 4 (≈ 3.03 µM) | MIC P. aeruginosa PA14 4.18 (PA14 4.18 (pmrB)): 16 µg/mL (≈ 12.1 µM); MIC Enterobacter cloacae (Enterobacter cloacae): 2 µg/mL (≈ 1.51 µM); MIC Burkolderia cenocepacia (Burkolderia cenocepacia): >64 µg/mL; MIC B. cenocepacia (Burkolderia cenocepacia; supplementary CSV): > 64 µg/mL; MIC ZEM-1A (P. aeruginosa ZEM-1A): 2 µg/mL (≈ 1.51 µM); MIC S. aureus Newman (S. aureus Newman): 2 µg/mL (≈ 1.51 µM); MIC S. aureus Newmann (S. aureus Newman): 2 µg/mL (≈ 1.51 µM)
CC(C)C[C@H](NC(=O)[C@H](CC(C)C)NC(=O)[C@H](CC(C)C)NC(=O)[C@@H](CCCCN)NC(=O)[C@@H](CC(C)C)NC(=O)[C@@H](CC(C)C)NC(=O)[C@@H](CCCCN)NC(=O)[C@H](CC(C)C)NC(=O)[C@H](CC(C)C)NC(=O)[C@H](CCCCN)NC(=O)[C@@H](N)CCCCN)C(N)=O [HP13, KKLLkllkLLL] |  |  |  |  |  | 16 to 32 | 24 (≈ 18.2 µM) |  |  | 4 to 8 | 6 (≈ 4.54 µM) | 16 to 32 | 24 (≈ 18.2 µM) |  |  |  |  |  |  |  | MIC, span over E. coli, P. aeruginosa, and A. baumannii [2]: 4 to 32 µg/mL; EYPC vesicle leakage (%) [3]: 8%
